Test results from paper PMC5423974 (European Journal of Clinical Pharmacology, 2017).
“And” between values parts separate entries of the source, which are not always exact repeats. Equal entries are not always repeated. Where two headings read alike, the source gives them in different places. Marks after values point to notes of the source that are not given here.

Key:
[1] = Pooled analysis of non-compartmental plasma PK of single-dose selumetinib in healthy subjects, by ethnicity; format: in vivo, human; conditions: for DN AUC / DN AUC(0–12) / DN Cmax: geometric mean (%CV)
Method: All the studies included in the pooled analysis were conducted in accordance with the ethical principles outlined in the Declaration of Helsinki and the International Council on Harmonization Good Clinical Practice. Written informed consent was obtained from all subjects prior to any study-related procedures.
The pooled analysis database was constructed using data collected in 10 studies (Online Resource 1). PK data were taken from Study 86 (Asian study) and Studies 66, 69, 71, 78, 80, 81, 82, 83 and 85 (Western studies), while pharmacogenetic data were obtained from Study 86 (Asian study) and Studies 66 and 83 (Western studies). Informed consent for genetic assessment was as follows: Study 66, 21 of 27 volunteers gave consent (one of these volunteers discontinued treatments); Study 83, all 26 volunteers gave consent; Study 86, 45 of 72 volunteers gave consent.
Further inclusion criteria for the database included fasted subjects dosed with the selumetinib capsule formulation used for Phase III. This meant exclusion of data from other oral formulations used in study 78 and intravenous formulation used in study 80. Data were included solely from study arms where there was an absence of other treatments (e.g. rifampicin, fluconazole) and from subjects with normal renal and hepatic function.
A merged dataset containing subject identifier, non-compartmental PK parameters and demographics was constructed.
The PK parameters AUC, AUC0–12 and Cmax were normalized (abbreviated as DN) for each subject, by dividing the specific PK parameter by the nominal dose (in mg units) and for dose per kg of body weight (abbreviated as DWN) using the following formula: PK parameter value / (nominal dose in mg units / subjects baseline body weight in kg units).
The majority of subjects in the Western studies were of White ethnicity, thus this formed the reference category for comparison. Statistical comparisons of selumetinib PK were undertaken between the following ethnic groups: Western vs All Asian; White vs Black; White vs All Asian; White vs Japanese; White vs non-Japanese Asian; White vs Indian. The comparisons were performed by fitting multivariate models to the PK parameters of interest (e.g. dose-normalized AUC and Cmax), with a stepwise backward selection of the covariates including ethnicity, age, sex, and weight.
Bioanalysis was performed by Covance, USA. […] After addition of deuterated internal standard, samples were extracted by protein precipitation by the addition of 4 volumes of methanol:acetonitrile. After centrifugation, the supernatants were […] to dryness under nitrogen at 50°C and reconstituted in methanol;water before analysis. Extraction recovery was approximately 93%. […] The typical liquid chromatography system was a Prominence SIL-20AC (Shimadzu, Tokyo, Japan). A Phenomenex Luna C18 column was used and maintained at 30°C. A gradient mobile phase system was used with 0.1% formic acid in water (A) or acetonitrile (B) with a flow rate of 0.500 mL/min and the gradient running from 25% B to 65% B over 2 minutes then increasing to 95% B over 0.1 minutes and held for 0.5 minutes before re-equilibration. The mass spectrometer used was an API 5000 or 5500 triple quadruple mass spectrometer (AB Sciex, Foster City, CA, USA). This was run in positive electrospray, multiple reaction monitoring, with an ionspray voltage of 5500 V and TurboIonSpray temperature of 600°C with transitions of 459.0/397.2 monitored.

[2] = Dose-exposure proportionality of AUC and Cmax (Power model, scatter plots); format: in vivo, human
Method: Dose-exposure proportionality for AUC and Cmax was assessed for non-Japanese Asian subjects using data from Study 86, and for the pooled analysis Western group by applying the Power model to data from the pooled analysis: Log(Y) = α + β•log(Dose) + ε, where Y = AUC or Cmax. Intercept and slope estimates (including point estimate, standard error, and 90% confidence interval [CI]) were provided for each parameter, and dose proportionality plots were generated for AUC and Cmax. All statistical analyses were performed using SAS version 9.2.

[3] = Safety and tolerability in Study 86 (Asian study); format: in vivo, human
Text: Safety and tolerability findings obtained from Study 86 were summarized and compared descriptively to the safety and tolerability findings from the studies in Western subjects. Additional safety and tolerability data for the Western studies are reported in detail elsewhere and include references.

[4] = system: cytochrome P450 2C19 (CYP2C19); set-up: method as in earlier work; conditions: ref 1 Report nos. Be000021–21 and D6244 KMN036, data on file, AstraZeneca; cited from earlier work
[5] = system: UDP glucuronosyltransferase family 1 member A1 (UGT1A1); set-up: method as in earlier work; conditions: ref 1 Report nos. Be000021–21 and D6244 KMN036, data on file, AstraZeneca; cited from earlier work
[6] = human, in vivo; cited from earlier work
[7] = All Asian (N = 72), healthy subjects, single dose, doses pooled
[8] = All Asian group compared with Western group
[9] = Black (N = 87), healthy subjects, single dose, doses pooled
[10] = Indian (N = 9), healthy subjects, single dose
[11] = Japanese (N = 27), healthy subjects, single dose, doses pooled
[12] = Western (N = 236), healthy subjects, single dose, doses pooled
[13] = White (N = 149), healthy subjects, single dose, doses pooled
[14] = non-Japanese Asian (N = 36), healthy subjects, single dose, doses pooled
[15] = non-Japanese Asian compared to White
[16] = Study 86, Asian healthy subjects, 25, 35 and 50 mg

Question: With `Cn1cnc2c(F)c(Nc3ccc(Br)cc3Cl)c(C(=O)NOCCO)cc21` [selumetinib, Selumetinib] as the compound, how does the “DN AUC” value [1, 7] read?
Answer: 79.8 ng.h/mL/mg and 79.8 (23.6) ng.h/mL/mg

Question: And the “DN AUC(0–12)” value [1, 7]?
Answer: 61.7 ng.h/mL/mg and 61.7 (24.6) ng.h/mL/mg

Question: What about the “DN Cmax” value [1, 7] of the same compound?
Answer: 26.3 (30.9) ng/mL/mg

Question: What about the tmax ([1]; All Asian (N = 72), healthy subjects, single dose, median (min, max)) of the same compound?
Answer: 1.0 (1, 4) h

Question: And the “percentage by which dose-normalized AUC is higher” value [1, 8]?
Answer: 35%

Question: And the “percentage by which dose-normalized Cmax is higher” value [1, 8]?
Answer: 39%

Question: What about the “dose-normalized selumetinib exposure higher” value ([1]; Asian subjects compared with Western subjects, single dose 25 to 75 mg) of the same compound?
Answer: 35–39%

Question: And the “DN AUC” value [1, 9]?
Answer: 53.4 ng.h/mL/mg and 53.4 (26.4) ng.h/mL/mg

Question: What about the “DN AUC(0–12)” value [1, 9] of the same compound?
Answer: 43.3 ng.h/mL/mg and 43.3 (26.7) ng.h/mL/mg

Question: And the “DN Cmax” value [1, 9]?
Answer: 16.9 (39.6) ng/mL/mg

Question: What about the tmax ([1]; Black (N = 87), healthy subjects, single dose, median (min, max)) of the same compound?
Answer: 1.0 (1, 4) h

Question: What about the “DN AUC” value [1, 10] of the same compound?
Answer: 69.5 ng.h/mL/mg and 69.5 (16.7) ng.h/mL/mg

Question: What about the “DN AUC(0–12)” value [1, 10] of the same compound?
Answer: 53.5 ng.h/mL/mg and 53.5 (19.6) ng.h/mL/mg

Question: What about the “DN Cmax” value [1, 10] of the same compound?
Answer: 28.1 (16.0) ng/mL/mg

Question: And the tmax ([1]; Indian (N = 9), healthy subjects, single dose, median (min, max))?
Answer: 1.0 (1, 2) h

Question: What about the “percentage increase in geomean dose-normalized AUC” value ([1]; Indian compared to White) of the same compound?
Answer: 22%

Question: And the “percentage increase in geomean dose-normalized Cmax” value ([1]; Indian compared to White)?
Answer: 41%

Question: And the “DN AUC” value [1, 11]?
Answer: 84.8 ng.h/mL/mg and 84.8 (21.0) ng.h/mL/mg

Question: What about the “DN AUC(0–12)” value [1, 11] of the same compound?
Answer: 65.7 ng.h/mL/mg and 65.7 (24.1) ng.h/mL/mg

Question: What about the “DN Cmax” value [1, 11] of the same compound?
Answer: 28.7 (31.0) ng/mL/mg

Question: And the tmax ([1]; Japanese (N = 27), healthy subjects, single dose, median (min, max))?
Answer: 1.0 (1, 3) h

Question: And the “percentage increase in geomean dose-normalized AUC” value ([1]; Japanese compared to White)?
Answer: 51%

Question: And the “percentage increase in geomean dose-normalized Cmax” value ([1]; Japanese compared to White)?
Answer: 45%

Question: And the “DN AUC” value ([1]; Western (N = 235), healthy subjects, single dose, doses pooled)?
Answer: 52.4 ng.h/mL/mg and 52.4 (24.9)^‡ ng.h/mL/mg

Question: And the t1/2 ([1]; Western (N = 235), healthy subjects, single dose, arithmetic mean (SD))?
Answer: 9.1 (2.91)^‡ h

Question: And the “DN AUC(0–12)” value [1, 12]?
Answer: 42.9 ng.h/mL/mg and 42.9 (25.1) ng.h/mL/mg

Question: What about the “DN Cmax” value [1, 12] of the same compound?
Answer: 17.4 (35.6) ng/mL/mg

Question: What about the tmax ([1]; Western (N = 236), healthy subjects, single dose, median (min, max)) of the same compound?
Answer: 1.0 (1, 4) h

Question: And the “DN AUC” value ([1]; White (N = 148), healthy subjects, single dose, 25-75 mg doses pooled)?
Answer: 51.9 ng.h/mL/mg and 51.9 (23.9)^† ng.h/mL/mg

Question: And the “DN AUC(0–12)” value [1, 13]?
Answer: 42.7 ng.h/mL/mg and 42.7 (24.2) ng.h/mL/mg

Question: And the “DN Cmax” value [1, 13]?
Answer: 17.7 (33.2) ng/mL/mg

Question: And the tmax ([1]; White (N = 149), healthy subjects, single dose, median (min, max))?
Answer: 1.0 (1, 4) h

Question: And the half-life ([1]; human, plasma, oral, 25 mg, Indian (N = 9), healthy subjects, single dose, arithmetic mean (SD))?
Answer: 9.5 h

Question: What about the half-life ([1]; human, plasma, oral, All Asian (N = 72), healthy subjects, single dose, arithmetic mean (SD)) of the same compound?
Answer: 10.4 h

Question: And the half-life ([1]; human, plasma, oral, Black (N = 87), healthy subjects, single dose, arithmetic mean (SD))?
Answer: 8.7 h

Question: And the half-life ([1]; human, plasma, oral, Japanese (N = 27), healthy subjects, single dose, arithmetic mean (SD))?
Answer: 11.5 h

Question: And the half-life ([1]; human, plasma, oral, White (N = 148), healthy subjects, single dose, arithmetic mean (SD))?
Answer: 9.3 h

Question: What about the tmax ([1]; human, plasma, oral, all ethnic groups, read-out: median tmax) of the same compound?
Answer: 1 to 1.6 h

Question: What about the half-life ([1]; human, plasma, oral, non-Japanese Asian (N = 36), healthy subjects, single dose, arithmetic mean (SD)) of the same compound?
Answer: 9.8 h

Question: And the tmax ([1]; human, plasma, oral, non-Japanese Asian (N = 36), healthy subjects, single dose, median (min, max), read-out: tmax)?
Answer: 1.6 h

Question: What about the “DN AUC” value [1, 14] of the same compound?
Answer: 78.9 ng.h/mL/mg and 78.9 (25.4) ng.h/mL/mg

Question: And the “DN AUC(0–12)” value [1, 14]?
Answer: 61.1 ng.h/mL/mg and 61.1 (24.6) ng.h/mL/mg

Question: What about the “DN Cmax” value [1, 14] of the same compound?
Answer: 24.3 (32.3) ng/mL/mg

Question: And the “differences in the geomeans for dose-normalized AUC and dose-normalized Cmax” value ([1]; non-Japanese Asian and Indian against Japanese)?
Answer: 2 to 18%

Question: And the “percentage increase in geomean dose-normalized AUC” value [1, 15]?
Answer: 37%

Question: What about the “percentage increase in geomean dose-normalized Cmax” value [1, 15] of the same compound?
Answer: 20%

Question: What about the “dose-exposure proportionality (visual assessment of scatter plots, AUC and Cmax)” value ([2]; Western group, single doses of 25 to 75 mg) of the same compound?
Answer: Approximate dose proportionality

Question: And the “dose-exposure proportionality (visual assessment of scatter plots, AUC and Cmax)” value ([2]; non-Japanese Asian group, 25 to 50 mg)?
Answer: approximate dose proportionality

Question: And the “number of AEs reported” value ([3]; Study 86, Asian healthy subjects)?
Answer: 21

Question: And the “AE leading to discontinuation of selumetinib” value [3, 16]?
Answer: no AE led to the discontinuation

Question: And the serious adverse event [3, 16]?
Answer: no subject experienced a serious adverse event

Question: And the “safety or tolerability concerns” value ([3]; Study 86, Asian healthy subjects, any dose level (25, 35 and 50 mg))?
Answer: no safety or tolerability concerns

Question: And the “number of AEs deemed related to selumetinib by the Investigator” value ([3]; Study 86, of the 21 AEs reported)?
Answer: 14

Question: And the substrate of enzyme [4]?
Answer: substrate

Question: And the substrate of enzyme [5]?
Answer: substrate

Question: And the “serious AEs” value [6]?
Answer: no serious AEs
